Measurements from ChEMBL document CHEMBL5357027, “Annonaceous Acetogenins Synergistically Inhibit Hepatocellular Carcinoma with Sorafenib” (J Nat Prod, 2024).
Active and inactive are the calls of the source. No cut-off for these calls is given here.

Experiments:
HepG2 [1] = assay: Cytotoxicity against human HepG2 cells assessed as cell growth inhibition incubated for 48 hrs by MTT assay; type: functional, cell-based; conditions: HepG2, 48 h
HepG2 [2] = assay: Synergistic cytotoxicity against human HepG2 cells assessed as cell growth inhibition by measuring synergy score at 1 to 16 uM incubated for 48 hrs in presence of sorafenib at 1 to 16 uM by MTT assay; type: functional; conditions: dose 1-16 µM
Huh-7 [3] = assay: Synergistic cytotoxicity against human Huh-7 cells assessed as cell growth inhibition by measuring synergy score at 1 to 16 uM incubated for 48 hrs in presence of sorafenib at 1 to 16 uM by MTT assay; type: functional; conditions: dose 1-16 µM
MHCC97H [4] = assay: Cytotoxicity against human MHCC97H cells assessed as cell growth inhibition incubated for 48 hrs by MTT assay; type: functional, cell-based
HCCLM3 [5] = assay: Cytotoxicity against human HCCLM3 cells assessed as cell growth inhibition incubated for 48 hrs by MTT assay; type: functional, cell-based; conditions: HCCLM3, 48 h
MHCC97H [6] = assay: Synergistic cytotoxicity against human MHCC97H cells assessed as cell growth inhibition by measuring synergy score at 1 to 16 uM incubated for 48 hrs in presence of sorafenib at 1 to 16 uM by MTT assay; type: functional; conditions: dose 1-16 µM
Huh-7 [7] = assay: Cytotoxicity against human Huh-7 cells assessed as cell growth inhibition incubated for 48 hrs by MTT assay; type: functional, cell-based; conditions: Huh-7, 48 h
HCCLM3 [8] = assay: Synergistic cytotoxicity against human HCCLM3 cells assessed as cell growth inhibition by measuring synergy score at 1 to 16 uM incubated for 48 hrs in presence of sorafenib at 1 to 16 uM by MTT assay; type: functional; conditions: dose 1-16 µM
HCCLM3 [9] = assay: Inhibition of mitochondrial respiratory chain complex I in human HCCLM3 incubated for 24 hrs; type: cell-based
HCCLM3 [10] = assay: Induction of apoptosis in human HCCLM3 cells assessed as viable cells at 4 uM incubated for 48 hrs by Annexin V/FITC-PI staining based flow cytometry (reference value: 96.55%); type: functional; conditions: read-out: Activity
MHCC97H [11] = assay: Inhibition of mitochondrial function in human MHCC97H cells assessed as reduction in ATP production at 8 uM incubated for 48 hrs; type: functional, cell-based
HepG2 [12] = assay: Synergistic inhibition of mitochondrial function in human HepG2 cells assessed as reduction in intracellular ATP level at 8 uM incubated for 48 hrs in presence of 16 uM sorafenib; type: functional, cell-based
HCCLM3 [13] = assay: Induction of apoptosis in human HCCLM3 cells assessed as viable cells at 4 uM incubated for 48 hrs in presence of 4uM sorafenib by Annexin V/FITC-PI staining based flow cytometry (reference value: 96.55%); type: functional; conditions: read-out: Activity
HCCLM3 [14] = assay: Induction of apoptosis in human HCCLM3 cells assessed as early apoptotic cells at 4 uM incubated for 48 hrs in presence of 4uM sorafenib by Annexin V/FITC-PI staining based flow cytometry (reference value: 0.05%); type: functional
HCCLM3 [15] = assay: Induction of apoptosis in human HCCLM3 cells assessed as necrotic cells at 4 uM incubated for 48 hrs by Annexin V/FITC-PI staining based flow cytometry (reference value: 3.33%); type: functional
HCCLM3 [16] = assay: Induction of apoptosis in human HCCLM3 cells assessed as necrotic cells at 4 uM incubated for 48 hrs in presence of 4uM sorafenib by Annexin V/FITC-PI staining based flow cytometry (reference value: 3.33%); type: functional
Huh-7 [17] = assay: Synergistic inhibition of mitochondrial function in human Huh-7 cells assessed as reduction in intracellular ATP level at 8 uM incubated for 48 hrs in presence of 16 uM sorafenib; type: functional, cell-based
HCCLM3 [18] = assay: Induction of apoptosis in human HCCLM3 cells assessed as late apoptotic cells at 4 uM incubated for 48 hrs in presence of 4uM sorafenib by Annexin V/FITC-PI staining based flow cytometry (reference value: 0.07%); type: functional
MHCC97H [19] = assay: Synergistic inhibition of mitochondrial function in human MHCC97H cells assessed as reduction in intracellular ATP level at 8 uM incubated for 48 hrs in presence of 16 uM sorafenib; type: functional, cell-based
Huh-7 [20] = assay: Inhibition of mitochondrial function in human Huh-7 cells assessed as reduction in ATP production at 8 uM incubated for 48 hrs; type: functional, cell-based
HCCLM3 [21] = assay: Induction of apoptosis in human HCCLM3 cells assessed as late apoptotic cells at 4 uM incubated for 48 hrs by Annexin V/FITC-PI staining based flow cytometry (reference value: 0.07%); type: functional
HepG2 [22] = assay: Inhibition of mitochondrial function in human HepG2 cells assessed as reduction in ATP production at 8 uM incubated for 48 hrs; type: functional, cell-based
HCCLM3 [23] = assay: Induction of apoptosis in human HCCLM3 cells assessed as early apoptotic cells at 4 uM incubated for 48 hrs by Annexin V/FITC-PI staining based flow cytometry (reference value: 0.05%); type: functional
HCCLM3 [24] = assay: Synergistic inhibition of mitochondrial function in human HCCLM3 cells assessed as reduction in intracellular ATP level at 8 uM incubated for 48 hrs in presence of 16 uM sorafenib; type: functional, cell-based
HCCLM3 [25] = assay: Inhibition of mitochondrial function in human HCCLM3 cells assessed as reduction in ATP production at 8 uM incubated for 48 hrs; type: functional, cell-based
HCCLM3 [26] = assay: Induction of apoptosis in human HCCLM3 cells assessed as apoptotic ratio at 4 uM incubated for 48 hrs in presence of 4uM sorafenib by Annexin V/FITC-PI staining based flow cytometry relative to control; type: functional

Work on `CCCCCCCCCCCC[C@H](O)[C@@H]1CC[C@H]([C@H](O)CCCC[C@@H](O)CCCCC[C@@H](O)CC2=C[C@H](C)OC2=O)O1` yielded an IC50 (HepG2 [1]) of 7.1 µM, an Activity (HepG2 [2]) of 2.3 and an Activity (Huh-7 [3]) of 2.3. The IC50 (MHCC97H [4]) was 7.1 µM, the IC50 (HCCLM3 [5]) was 7.1 µM and the Activity (MHCC97H [6]) was 2.3. For the same compound, the IC50 (Huh-7 [7]) was 7.1 µM, the Activity (HCCLM3 [8]) was 2.3 and the inhibition (HCCLM3 [9]) was “Active”.

Work on `CCCCCCCCCCCC[C@@H](O)[C@H]1CC[C@H]([C@H](O)CCCC(O)CCCCCC[C@@H](O)CC2=C[C@H](C)OC2=O)O1` (stereo partly drawn) yielded an IC50 (HepG2 [1]) of 10 µM, an Activity (HepG2 [2]) of 2 and an Activity (Huh-7 [3]) of 2. The IC50 (MHCC97H [4]) was 10 µM, the IC50 (HCCLM3 [5]) was 10 µM and the Activity (MHCC97H [6]) was 2. The IC50 (Huh-7 [7]) was 10 µM, the Activity (HCCLM3 [8]) was 2 and the inhibition (HCCLM3 [9]) was “Active”.

Work on `CCCCCCCCCC[C@@H](O)[C@H](O)C[C@@H](O)[C@H]1CC[C@H](CCCCCCCCCC[C@@H](O)CC2=C[C@H](C)OC2=O)O1` yielded an IC50 (HepG2 [1]) of over 50 µM, an Activity (HepG2 [2]) of 2.7 and an Activity (Huh-7 [3]) of 2.7. It also gave an IC50 (MHCC97H [4]) of over 50 µM, an IC50 (HCCLM3 [5]) of over 50 µM and an Activity (MHCC97H [6]) of 2.7. For the same compound, the IC50 (Huh-7 [7]) was over 50 µM, the Activity (HCCLM3 [8]) was 2.7 and the inhibition (HCCLM3 [9]) was “Active”.

For `CCCCCCCCCC[C@H](O)[C@@H](O)C[C@H](O)[C@@H]1CC[C@@H](CCCCCCCCCC[C@@H](O)CC2=C[C@H](C)OC2=O)O1`, the viability at 4 µM (HCCLM3 [10]) was 97.2%, the inhibition (MHCC97H [11]) was “Active” and the inhibition (HepG2 [12]) was “Active”. For the same compound, the viability at 4 µM (HCCLM3 [13]) was 80.5%, the Activity (HCCLM3 [14]) was 8.66% and the Activity (HCCLM3 [15]) was 1.36%. The Activity (HCCLM3 [16]) was 4.44%, the inhibition (Huh-7 [17]) was “Active” and the IC50 (HepG2 [1]) was over 50 µM. The Activity (HepG2 [2]) was 3.7, the Activity (Huh-7 [3]) was 7.1 and the Activity (HCCLM3 [18]) was 6.45%. The IC50 (MHCC97H [4]) was over 50 µM, the inhibition (MHCC97H [19]) was “Active” and the IC50 (HCCLM3 [5]) was over 50 µM. For the same compound, the inhibition (Huh-7 [20]) was “Active”, the Activity (MHCC97H [6]) was 17 and the Activity (HCCLM3 [21]) was 0.17%. The inhibition (HepG2 [22]) was “Active”, the IC50 (Huh-7 [7]) was over 50 µM and the Activity (HCCLM3 [23]) was 1.27%. The Activity (HCCLM3 [24]) was “Active”, the Activity (HCCLM3 [8]) was 13.9 and the inhibition (HCCLM3 [25]) was “Active”. The Activity (HCCLM3 [26]) was 11.6% and the inhibition (HCCLM3 [9]) was “Active”.
